In patent US12324841B2, “Methods of treating cancer with a combination of an anti-PD-1 antibody and an anti-tissue factor antibody-drug conjugate” (GENMAB A/S, priority 2018, dated 2025):
Entries after “also recorded” stand apart in the source; their conditions may differ.

Columns and labels:
[1] = tested on: Tissue Factor positive cell lines; test: Cell death and release of ATP and HMGB1 from Tissue Factor positive cell lines; format: cell-based
Text: Auristatin ADC payloads disrupt the microtubule networks resulting in altered ER localization and function, which ultimately results in ER stress.

[2] = tested on: HPAFII (pancreatic carcinoma); test: Western blot analysis of ER stress induction in HPAFII cells; format: cell-based; conditions: 18 hours (legend: 16 hours)
Protocol: (§1) Induction of cell death and release of ICD danger signals occurs concomitant with initiation of an ER stress response. Two Tissue Factor positive cell lines, HPAFII (pancreatic carcinoma) and MDA-MB-231 (breast cell carcinoma) were exposed to tisotumab vedotin ADC, an Isotype-MMAE ADC (H00-MMAE, IgG1 MMAE), or free MMAE for 18 hours and induction of ER stress monitored by western blot analysis. Phosphorylation of inositol-requiring transmembrane kinase/endonuclease 1 (IRE1) was detected after treatment with tisotumab vedotin ADC or MMAE free drug (FIG. 6). […] The ability for auristatins to prime the immune system to recognize tumor antigens opens the door for a myriad of combinatorial therapeutic options.

[3] = tested on: MDA-MB-231 (breast cell carcinoma); test: Western blot analysis of ER stress induction in MDA-MB-231 cells; format: cell-based; conditions: MDA-MB-231, 18 hours (legend: 16 hours)
Protocol: as §1

[4] = tested on: CD14+ monocyte/macrophages; test: Monocyte/macrophage activation in PBMCs fed killed MDA-MB-231 cells; format: cell-based, human
Text: FIGS. 7A and 7B is a series of graphs in which Tissue Factor positive MDA-MB-231 cells killed with various agents were fed to human peripheral blood mononuclear cells (PBMCs) and immune activation assessed by increased expression of activations markers on innate CD14+ monocyte/macrophages and induction of chemokine and cytokine production.
Immunogenic cell death, as mediated by MMAE, is regulated cell death that activates adaptive immune responses against antigens from dead and dying tumor cells, and allows for the generation of robust innate immune cell activation and subsequent cytotoxic T cell responses targeted towards specific tumor cell antigens. […] Furthermore, these monocyte/macrophages conditioned by ICD-killed cells promote activation of T cells, as evidenced by production of signature inflammatory cytokines associated with cytotoxic T cell responses.

[5] = compared to IgG1-MMAE ADC or tisotumab alone

“tisotumab vedotin: antibody-drug conjugate comprising an antibody that binds to tissue factor (TF), a protease-cleavable linker, and the microtubule disrupting agent MMAE” was tested, and the cell death [1] was “undergo cell death”, the ATP release/secretion ([1]; FIG. 5A) was “drove robust A) ATP secretion; also recorded: release the ICD related molecules ATP” and the “activity on multiple Tissue Factor positive cell lines” value ([1]; FIG. 5B) was “active on multiple Tissue Factor positive cell lines”. The HMGB1 release/secretion ([1]; FIG. 5C) was “drove robust A) ATP secretion and C) HMGB1 release; also recorded: release the ICD related molecules ATP (FIG. 5A) and HMGβ1”, the “ATF4 cleavage (PERK pathway)” value [2] was “upregulation of ATF4 cleavage” and the “phosphorylation of IRE1” value [2] was “detected”. For the same substance, the “phosphorylation of JNK” value [2] was “increased phosphorylation”, the “ATF4 cleavage (PERK pathway)” value [3] was “upregulation of ATF4 cleavage” and the “phosphorylation of IRE1” value [3] was “detected”. For the same substance, the “phosphorylation of JNK” value [3] was “increased phosphorylation”, the “chemotactic and inflammatory mediators from monocyte/macrophages after uptake of dead cells” value [4] was “elicit strong chemotactic and inflammatory mediators” and the “monocyte/macrophage activation, CD86 expression by flow cytometry” value [4, 5] was “drove monocyte/macrophage activations”. For the same substance, the “release of innate chemokines including MIP 1β” value [4, 5] was “induced release of innate chemokines including MIP 1β”.
